From patent US20030003579A1, “Dendritic cells; methods” (priority 2000, published 2003)

Experiments:
pre-DC2 [1] = assay: Viability of pre-DC2 by propidium iodide staining and flow cytometry; format: cell-based, human; conditions: 24 h culture
Description: (§1) Underlines indicate palindromic sequences. ODNs 1668, 2117, and 2006 are phosphorothioate forms, and ACC-30, AAC-30, and GAC-30 are phosphodiester forms. The phosphorothioate ODNs were added at 0 h at 0.1 μM or 1 μM, and the phosphodiester ODNs were added at 0, 4, and 16 h, 5 μM at each time point, to compensate for their degradation by deoxyribonuclease activity in media.
(§2) Monocytes, CD11c^+ DC, and pre-DC2 were isolated from human peripheral blood. See Grouard, et al. (1997) J. Exp'l Med. 185:1101-1111; and Kadowaki, et al. (2000) J. Exp'l Med. 192:219-226. The cells were cultured for 24 h in RPMI1640 containing 10% FCS at 2×10^4/200 μl in round-bottom 96-well culture plates in the presence of ODNs or 50 μg/ml poly I:C (Sigma). Adult dermal fibroblasts (Clonetics) were maintained as recommended by the company, and were stimulated with 50 μg/ml poly I:C for 24 h at 7.5×10^4/ml in 12-well culture plates.
IV. Analysis of viability of pre-DC2 stimulated with ODNs or poly I:C Pre-DC2 cultured for 24 h without stimulation or with ODNs or poly I:C were stained with propidium iodide, and were analyzed with a FACScan® flow cytometer (Becton Dickinson). After cell debris was excluded by an appropriate forward scatter threshold, the percentages of propidium iodide-negative cells were calculated.
Pre-DC2 were cultured for 24 h without stimulation, with the indicated ODNs, or with 50 μg/ml poly I:C. ACC-30, AAC-30, and GAC-30 were added at 5 μM. After cell debris was excluded by an appropriate forward scatter threshold, the percentages of propidium iodide-negative cells were measured by flow cytometry

CD11c^+ DC [2] = assay: Cytokine production by CD11c+ DC, ELISA of supernatants; format: cell-based, human; conditions: 24 h
Description: as §1, §2
(§3) An IFN-α ELISA kit, an IL-12 ELISA kit (Biosource International), and an IFN-β ELISA kit (FUJIREBIO) were used to analyze cytokine production.
(§4) It was examined whether CpG ODNs and poly I:C induce pre-DC2 to produce IFN-α. Cells were stimulated with various CpG ODNs (2117, 2006, 1668: 1 μM, ACC-30, AAC-30, GAC-30: 5 μM) for 24 h, and the concentrations of IFN-α in the supernatants were measured by ELISA. Typically, cytokine is accumulated from cultures of about 2×10^4 cells in 200 μl cultured for 24 h. […] In contrast, AAC-30 and GAC-30 induced pre-DC2 to produce large amounts of IFN-α (AAC-30 508-1806 pg/ml, GAC-30 931-1362 pg/ml). ACC-30 induced pre-DC2 to produce much smaller amounts of IFN-α (18-161 pg/ml). None of the CpG ODNs used here induced CD11c^+ DC and monocytes to produce detectable levels of IFN-α.

pre-DC2 [3] = assay: Cytokine production by pre-DC2, ELISA of supernatants; format: cell-based, human; conditions: 24 h
Description: as §1, §2, §3, §4

CD11c^+ DC [4] = assay: Flow cytometric analysis of CD80 and CD86 expression on CD11c+ DC; format: cell-based, human; conditions: 50 μg/ml poly I:C, 24 h culture
Description: as §2
(§5) Freshly isolated pre-DC2 and pre-DC2 stimulated with ODNs for 24 h were stained with PE-conjugated anti-CD80 (L307.4, Becton Dickinson), PE-conjugated anti-CD86 (2331, Pharmingen), or an isotype control antibody. CD11c^+ DC cultured for 24 h without stimulation or with poly I:C were stained with FITC-conjugated anti-CD80 (L307.4), FITC-conjugated anti-CD86 (2331), or an isotype control antibody. The cells were analyzed with a FACScan® flow cytometer. Dead cells were excluded by staining with propidium iodide.
CD11c^+ DC cultured for 24 h without stimulation or with 50 μg/ml poly I:C were stained with FITC-conjugated anti-CD80 or anti-CD86 mAbs. […] Cella, et al. (1999) J. Exp'l Med. 189:821-829; and Verdijk, et al. (1999) J. Immunol. 163:57-61. […]

pre-DC2 [5] = assay: Flow cytometric analysis of CD80 and CD86 expression on pre-DC2; format: cell-based, human; conditions: for expression of CD80 and CD86 on pre-DC2: 5 μM phosphodiester ODN, 24 h
Description: as §1, §2, §5
Freshly isolated pre-DC2 and pre-DC2 cultured with the CpG ODNs for 24 h were stained with PE-conjugated anti-CD80 or anti-CD86 mAbs. The upregulation of CD80 and CD86 expression on pre-DC2 is a hallmark of their differentiation into DC. Grouard, et al. (1997) J. Exp'l Med. 185:1101-1111; and Kadowaki, et al. (2000) J. Exp'l Med. 192:219-226.

monocytes = assay: Cytokine production by monocytes, ELISA of supernatants; format: cell-based, human; conditions: 24 h; for IFN-α production by monocytes: CpG ODNs (2117, 2006, 1668: 1 μM; ACC-30, AAC-30, GAC-30: 5 μM)
Description: as §1, §2, §3, §4

Adult dermal fibroblasts = assay: IFN-β production by poly I:C stimulated fibroblasts, ELISA; format: cell-based; conditions: 50 μg/ml poly I:C, 24 h, 7.5×10^4/ml
Description: as §2, §3

[6] = 5 μM phosphodiester ODN added at 0, 4 and 16 h
[7] = 5 μM ODN, about 2×10^4 cells in 200 μl
[8] = CpG ODNs (2117, 2006, 1668: 1 μM; ACC-30, AAC-30, GAC-30: 5 μM)

| Substance | survival of pre-DC2 (propidium iodide-negative cells) (pre-DC2 [1]; [6]) | IFN-α production by pre-DC2 (pre-DC2 [3]; [7]) [pg/mL] | IFN-α production by CD11c+ DC (CD11c^+ DC [2]; [8]) | expression of CD80 and CD86 on pre-DC2 (pre-DC2 [5]) | IFN-α production by monocytes (monocytes) | further results |
| --- | --- | --- | --- | --- | --- | --- |
| polyinosinic polycytidylic acid [poly I:C] | – | – | – | – | – | survival of pre-DC2 (propidium iodide-negative cells) (pre-DC2 [1]; 50 μg/ml poly I:C): did not maintain the survival of pre-DC2; IFN-α production by CD11c+ DC (CD11c^+ DC [2]; 50 μg/ml poly I:C): 24.1 to 97.9 pg/mL; IFN-β production by CD11c+ DC (CD11c^+ DC [2]; 50 μg/ml poly I:C): 33.6 to 166.5 pg/mL; IL-12 production by CD11c+ DC (CD11c^+ DC [2]; 50 μg/ml poly I:C): 17.7 to 137.7 pg/mL; IFN-α production by pre-DC2 (pre-DC2 [3]; 50 μg/ml poly I:C): did not induce pre-DC2 to produce a detectable level of IFN-α; expression of CD80 and CD86 on CD11c+ DC (CD11c^+ DC [4]): strongly upregulated; differentiation of pre-DC2 into DC (pre-DC2 [5]; poly I:C): does not stimulate pre-DC2 to survive and to differentiate into DC; IFN-β production by monocytes (monocytes; 50 μg/ml poly I:C): but not pre-DC2 or monocytes; IFN-β production by fibroblasts (Adult dermal fibroblasts): 28.6 to 48.5 pg/mL |
| ACC-30: oligodeoxynucleotide ACCGATACCGGTGCCGGTGACGGCACCACG (DNA, all phosphodiester, methylation of C not given here) | less efficient | 18 to 161 | – | – | – | – |
| AAC-30: palindromic CpG oligodeoxynucleotide ACCGATAACGTTGCCGGTGACGGCACCACG (DNA, all phosphodiester, methylation of C not given here) | maintained the survival of pre-DC2 | 508 to 1806 | did not produce detectable levels of IFN-α | upregulated CD80 and CD86, albeit to a lesser extent than 2006 and 2117 | did not produce detectable levels of IFN-α | – |
| 1668: CpG oligodeoxynucleotide TCCATGACGTTCCTGATGCT (DNA, all phosphorothioate, methylation of C not given here) [compound 1668] | – | – | – | – | – | survival of pre-DC2 (propidium iodide-negative cells) (pre-DC2 [1]; 1 μM phosphorothioate ODN): did not maintain the survival of pre-DC2; IFN-α production by pre-DC2 (pre-DC2 [3]; 1 μM ODN, about 2×10^4 cells in 200 μl): did not induce pre-DC2 to produce detectable levels of IFN-α |
| GAC-30: palindromic CpG oligodeoxynucleotide ACCGATGACGTCGCCGGTGACGGCACCACG (DNA, all phosphodiester, methylation of C not given here) | maintained the survival of pre-DC2 | 931 to 1362 | did not produce detectable levels of IFN-α | upregulated CD80 and CD86, albeit to a lesser extent than 2006 and 2117 | did not produce detectable levels of IFN-α | – |
